Tested on: Methicillin-resistant Staphylococcus aureus
Conditions: 0.005% (by weight) active PHMB
Procedure: This Example utilized 1.5-milliliter tubes containing a 1-milliliter blend of phosphate-buffered saline (pH 7.2) and 5% (w/v) bovine serum albumin soil. The tubes were placed in electric heat blocks set for 22° C., 30° C., 40° C. and 50° C., respectively. The tubes remained in the electric heat blocks for approximately 10 minutes.
Duplicate tubes without PHMB at each temperature were also made.
All of the tubes were then placed back into the heat blocks at their respective temperatures. […] The letheen samples were then plated in duplicate on Tryptic Soy agar plates using a WASP2 spiral plater (commercially available from Don Whitley Scientific, Ltd., Yorkshire, United Kingdom).
After 48 hours, the plates were evaluated using a total plate count to determine the biocidal efficacy of each sample.

polyhexamethylene biguanide [PHMB]
difference in efficacy between 22° C. and 50° C.: greater than 1.4 LOG,o
